# Reference: ChEMBL document CHEMBL4680126, “Indazolyl-substituted piperidin-4-yl-aminopyrimidines as HIV-1 NNRTIs: Design, synthesis and biological activities” (Eur J Med Chem, 2020)
# Tests used:
# [1] = Selectivity index, ratio of CC50 for cytotoxicity against human MT4 cells reduction in cell viability by MTT assay to EC50 for antiviral activity against wild type HIV-1 strain IIIB infected in human MT4 cells assessed as reduction in virus-induced cytopathogenicity by MTT assay; format: toxicity, cell-based; details: read-out: Selectivity Index
# [2] = Cytotoxicity against human MT4 cells assessed as inhibition of cell viability by measuring reduction in absorbance at OD540 by MTT assay; format: cell-based
# [3] = tested on: Human immunodeficiency virus 1; assay: Antiviral activity against HIV-1 K103N mutant strain infected in human MT4 cells assessed as reduction in virus-induced cytopathogenicity by MTT assay; format: functional, organism-based; details: Human immunodeficiency virus 1, MT4
# [4] = tested on: Human immunodeficiency virus 1; assay: Antiviral activity against HIV-1 E138K mutant strain infected in human MT4 cells assessed as reduction in virus-induced cytopathogenicity by MTT assay; format: functional, organism-based; details: Human immunodeficiency virus 1, MT4
# [5] = tested on: Human immunodeficiency virus 1; assay: Antiviral activity against wild type HIV-1 strain 3B infected in human MT4 cells assessed as reduction in virus-induced cytopathogenicity by MTT assay; format: functional, organism-based; details: Human immunodeficiency virus 1, 3B
# [6] = tested on: Human immunodeficiency virus 1; assay: Antiviral activity against HIV-1 RES056 mutant strain infected in human MT4 cells assessed as reduction in virus-induced cytopathogenicity by MTT assay; format: functional, organism-based; details: Human immunodeficiency virus 1, MT4
# [7] = tested on: Human immunodeficiency virus 2; assay: Antiviral activity against HIV-2 ROD strain infected in human MT4 cells assessed as reduction in virus-induced cytopathogenicity by MTT assay; details: Human immunodeficiency virus 2, ISOLATE ROD
# [8] = tested on: Human immunodeficiency virus 1; assay: Antiviral activity against HIV-1 Y181C mutant strain infected in human MT4 cells assessed as reduction in virus-induced cytopathogenicity by MTT assay; format: functional, organism-based; details: Human immunodeficiency virus 1, MT4
SMILES,selectivity ratio [1],CC50 [2],EC50 [3],EC50 [4],EC50 [5],EC50 [6],EC50 [7],EC50 [8]
Cc1cc(C#N)cc(C)c1Oc1nc(Nc2ccc(C#N)cc2)nc(N)c1Br [ETRAVIRINE],> 28,> 87 µM,,,,,,
O=C1Nc2ccc(Cl)cc2[C@@](C#CC2CC2)(C(F)(F)F)O1 [EFAVIRENZ],> 2420,> 6.3 µM,0.076 µM,0.0044 µM,0.0026 µM,0.24 µM,,
Cc1ccc(Oc2ccnc(NC3CCN(Cc4n[nH]c5ccccc45)CC3)n2)cc1,229,32 µM,3.8 µM,0.77 µM,0.14 µM,> 32 µM,> 32 µM,4.3 µM
Cc1cc(Oc2ccnc(NC3CCN(Cc4n[nH]c5ccccc45)CC3)n2)cc(C)c1Cl,41,15 µM,8.2 µM,4.7 µM,0.37 µM,> 15 µM,> 15 µM,8.7 µM
Cc1ccnc2c1NC(=O)c1cccnc1N2C1CC1 [NEVIRAPINE],> 1440,> 4.6 µM,0.0032 µM,0.0067 µM,0.0032 µM,0.034 µM,,0.014 µM
Clc1cccc(Oc2ccnc(NC3CCN(Cc4n[nH]c5ccccc45)CC3)n2)c1,93,26 µM,9.8 µM,4.7 µM,0.28 µM,> 26 µM,> 26 µM,9 µM
FC(F)(F)c1ccccc1Oc1ccnc(NC2CCN(Cc3n[nH]c4ccccc34)CC2)n1,50,15 µM,8.3 µM,4.4 µM,0.3 µM,> 15 µM,> 15 µM,6.8 µM
N#Cc1ccc(Oc2ccnc(NC3CCN(Cc4n[nH]c5ccccc45)CC3)n2)cc1,397,31 µM,2.6 µM,1.4 µM,0.078 µM,> 31 µM,> 31 µM,3.13 µM
FC(F)(F)c1cccc(Oc2ccnc(NC3CCN(Cc4n[nH]c5ccccc45)CC3)n2)c1,40,22 µM,8.9 µM,7 µM,0.55 µM,> 22 µM,> 22 µM,9.7 µM
FC(F)(F)c1ccc(Oc2ccnc(NC3CCN(Cc4n[nH]c5ccccc45)CC3)n2)cc1,62,29 µM,10 µM,4.8 µM,0.47 µM,> 29 µM,> 29 µM,> 29 µM
N#Cc1cc(Cl)cc(Oc2ccnc(NC3CCN(Cc4n[nH]c5ccccc45)CC3)n2)c1,12,27 µM,> 27 µM,> 27 µM,2.3 µM,> 27 µM,> 27 µM,> 27 µM
Brc1cccc(Oc2ccnc(NC3CCN(Cc4n[nH]c5ccccc45)CC3)n2)c1,88,22 µM,4.9 µM,3.5 µM,0.25 µM,> 22 µM,> 22 µM,6.1 µM
Brc1ccccc1Oc1ccnc(NC2CCN(Cc3n[nH]c4ccccc34)CC2)n1,171,5.3 µM,1.9 µM,0.48 µM,0.031 µM,> 5.3 µM,> 5.3 µM,1 µM
Cc1cccc(C)c1Oc1ccnc(NC2CCN(Cc3n[nH]c4ccccc34)CC2)n1,2090,18 µM,0.22 µM,0.084 µM,0.0086 µM,> 18 µM,> 18 µM,0.4 µM
Nc1ccn([C@@H]2CS[C@H](CO)O2)c(=O)n1 [LAMIVUDINE],> 417,> 7.5 µM,0.019 µM,0.019 µM,0.018 µM,0.028 µM,0.021 µM,0.012 µM
Cc1cc(C#N)cc(C)c1Oc1ccnc(NC2CCN(Cc3n[nH]c4ccccc34)CC2)n1,2500,16 µM,0.077 µM,0.057 µM,0.0064 µM,8.7 µM,> 16 µM,0.11 µM
Clc1ccccc1Oc1ccnc(NC2CCN(Cc3n[nH]c4ccccc34)CC2)n1,146,5.4 µM,> 5.4 µM,0.8 µM,0.037 µM,> 5.4 µM,> 5.4 µM,1.6 µM
Clc1ccc(Oc2ccnc(NC3CCN(Cc4n[nH]c5ccccc45)CC3)n2)cc1,130,30 µM,4 µM,2.3 µM,0.23 µM,> 30 µM,> 30 µM,5.6 µM
Cc1cn([C@H]2C[C@H](N=[N+]=[N-])[C@@H](CO)O2)c(=O)[nH]c1=O [ZIDOVUDINE],> 100,> 15 µM,,0.16 µM,,,,
N#Cc1cccc(Oc2ccnc(NC3CCN(Cc4n[nH]c5ccccc45)CC3)n2)c1,21,32 µM,> 32 µM,> 32 µM,1.5 µM,> 32 µM,> 32 µM,> 32 µM
Brc1ccc(Oc2ccnc(NC3CCN(Cc4n[nH]c5ccccc45)CC3)n2)cc1,114,24 µM,5.7 µM,2 µM,0.21 µM,> 24 µM,> 24 µM,7.5 µM
Cc1cccc(Oc2ccnc(NC3CCN(Cc4n[nH]c5ccccc45)CC3)n2)c1,82,32 µM,9.6 µM,4 µM,0.39 µM,> 32 µM,> 32 µM,> 11 µM
